Test results from PubChem BioAssay AID1897 (NMMLSC, 2009).
Active and inactive are the calls of the source. No rule for the calls is given here.

Target: Mitogen-activated protein kinase kinase kinase 2 (Homo sapiens) + Dual specificity mitogen-activated protein kinase kinase 5 (Homo sapiens) (UniProt Q9Y2U5+Q13163)
Test: MEKK2 PB1-MEK5 interaction blockers – biochemical, bead multiplex flow cytometry, wildtype, dose response (AID 1897)
Conditions: MEK5-MEKK2 PB1 binding; for Ki: measured here: Ki from binding competition

Sequence of Mitogen-activated protein kinase kinase kinase 2 (Homo sapiens) + Dual specificity mitogen-activated protein kinase kinase 5 (Homo sapiens) (Q13163 whole entry, looked up): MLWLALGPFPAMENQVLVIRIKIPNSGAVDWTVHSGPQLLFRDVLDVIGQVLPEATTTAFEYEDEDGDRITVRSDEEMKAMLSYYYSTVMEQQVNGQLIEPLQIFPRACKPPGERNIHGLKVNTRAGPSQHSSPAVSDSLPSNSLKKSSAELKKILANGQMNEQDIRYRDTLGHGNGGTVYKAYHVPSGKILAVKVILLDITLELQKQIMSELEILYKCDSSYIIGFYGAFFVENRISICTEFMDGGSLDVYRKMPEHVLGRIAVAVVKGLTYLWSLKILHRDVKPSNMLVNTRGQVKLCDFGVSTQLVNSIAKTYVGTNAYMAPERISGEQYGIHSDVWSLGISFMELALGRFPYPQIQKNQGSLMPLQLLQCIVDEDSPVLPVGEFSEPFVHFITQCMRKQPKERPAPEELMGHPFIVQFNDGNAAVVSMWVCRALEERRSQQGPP
Sequence of Mitogen-activated protein kinase kinase kinase 2 (Homo sapiens) + Dual specificity mitogen-activated protein kinase kinase 5 (Homo sapiens) (Q9Y2U5 whole entry, looked up): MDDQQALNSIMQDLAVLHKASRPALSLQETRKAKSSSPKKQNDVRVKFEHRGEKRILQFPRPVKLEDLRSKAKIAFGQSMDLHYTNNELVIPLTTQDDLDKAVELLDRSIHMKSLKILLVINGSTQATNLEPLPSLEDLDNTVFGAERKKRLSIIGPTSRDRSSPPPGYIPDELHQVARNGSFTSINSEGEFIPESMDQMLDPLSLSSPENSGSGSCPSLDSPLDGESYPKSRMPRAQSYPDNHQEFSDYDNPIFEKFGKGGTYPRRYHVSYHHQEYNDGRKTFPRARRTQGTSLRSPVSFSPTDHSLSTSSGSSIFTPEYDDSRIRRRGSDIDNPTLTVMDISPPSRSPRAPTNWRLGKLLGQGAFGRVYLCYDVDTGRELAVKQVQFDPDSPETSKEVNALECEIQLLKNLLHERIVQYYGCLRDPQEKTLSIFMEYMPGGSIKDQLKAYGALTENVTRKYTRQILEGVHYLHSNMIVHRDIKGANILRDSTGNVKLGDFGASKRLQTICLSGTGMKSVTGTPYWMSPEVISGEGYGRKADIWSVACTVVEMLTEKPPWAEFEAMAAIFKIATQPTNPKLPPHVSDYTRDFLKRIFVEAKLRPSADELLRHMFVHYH

EC50	Ki	SMILES
> 30 µM (inactive)	–	Cc1ccc(-n2cc(CNCCCn3ccnc3C)c(-c3ccc(F)cc3)n2)cc1
1.97 µM	–	COc1ccc(Cn2c(SCc3ccc(C)cc3)nc3cc(OC)c(OC)cc3c2=N)cc1Cl
> 30 µM (inactive)	–	COc1ccc2nc(C)cc(N/N=C/c3ccc(F)cc3)c2c1
> 30 µM (inactive)	–	COc1ccc(C(CCNCc2ccc(OC(C)C)cc2)c2ccccc2OC)cc1 (configuration not stated)
6.61 µM	–	CCN1CCN(CCNC(=O)c2ccc(/C=C3/Sc4ccccc4N(Cc4cccc(C)c4)C3=O)cc2)CC1
1.91 µM	–	NC(N)=N/N=C/c1ccc(OCc2ccc(Cl)cc2Cl)cc1
> 30 µM (inactive)	–	Cc1cc(N=Nc2ccc(C)c(N=Nc3cc(C)c(N)cc3N)c2)c(N)cc1N
0.52 µM	–	C#CCOCCOCCOCCNc1nc(N2CCN(C(=O)[C@H]([C@@H](C)CC)n3cc([C@@H](N)CO)nn3)CC2)nc(N2CCN(C(=O)[C@H](Cc3cc4ccccc4[nH]3)n3cc([C@@H](N)Cc4ccc(O)cc4)nn3)CC2)n1
> 30 µM (inactive)	–	CC(C)n1cc(CN2CCC(C(=O)Nc3cccc(-c4cccc(Cl)c4)c3)CC2)cn1
> 30 µM (inactive)	–	CCN1CCN(Cc2ccc(NC(=O)c3ccc(C)c(NC(=O)C(=O)c4c[nH]c5ccccc45)c3)cc2C(F)(F)F)CC1
0.87 µM	0.78 µM	CCC(/C=C1\Sc2ccc(OC)cc2N1CCO)=C\c1sc2ccc(OC)cc2[n+]1CCO
3.02 µM	2.7 µM	Cc1cc2ccccc2n1CCNC(=O)c1ccccc1
> 30 µM (inactive)	–	C#CCOCCOCCOCCNc1nc(N2CCN(C(=O)[C@H]([C@@H](C)CC)n3cc([C@@H](N)CC(C)C)nn3)CC2)nc(N2CCN(C(=O)[C@H](Cc3cc4ccccc4[nH]3)n3cc([C@@H](N)Cc4ccc(O)cc4)nn3)CC2)n1
> 30 µM (inactive)	–	CC(C)N=c1cc2n(-c3ccc(Cl)cc3)c3ccccc3nc-2cc1Nc1ccc(Cl)cc1
> 30 µM (inactive)	–	Nc1ccc2nc(-c3ccc(-c4nc5ccc(N)cc5[nH]4)cc3)[nH]c2c1
–	3.59 µM	Cc1c2cc(O)c(=O)cc-2oc2cc(O)c(O)cc12
> 30 µM (inactive)	–	O=C(Nc1ccc(C2=NCCN2)cc1)c1ccc(C(=O)Nc2ccc(C3=NCCN3)cc2)c([N+](=O)[O-])c1
10.1 µM	–	C#CCOCCOCCOCCNc1nc(N2CCN(C(=O)[C@H]([C@@H](C)CC)n3cc([C@@H](N)Cc4ccc(O)cc4)nn3)CC2)nc(N2CCN(C(=O)[C@H](CCCCN)n3cc([C@@H](N)CC(C)C)nn3)CC2)n1
> 30 µM (inactive)	–	C=CC#CC[N+]1(CC#Cc2ccccc2)CCOCC1
> 30 µM (inactive)	–	CCCCCc1cc(=O)oc2c(C(CCN3CCCCC3)c3ccc(OC)cc3)c(OC)cc(OC)c12 (configuration not stated)

EC50	Ki	SMILES
1.95 µM	1.75 µM	N#CC(C#N)=c1ccc2c(c1)N1C(c3ccccc3)=CC(c3ccccc3)C3CCCCC31N=2 (configuration not stated)
> 30 µM (inactive)	–	CS(=O)(=O)N1N=C(c2ccccc2)CC1c1ccc2c(c1)OCO2 (configuration not stated)
> 30 µM (inactive)	–	CN1CCN(CC(O)COc2ccc(C34CC5CC(CC(C5)C3)C4)cc2)CC1 (configuration not stated)
> 30 µM (inactive)	–	Brc1ccc(N=C/C=C/C=C/Nc2ccc(Br)cc2)cc1
> 30 µM (inactive)	–	Cc1ccnc(NC(=O)C2(c3cccs3)CCOCC2)c1
> 30 µM (inactive)	–	C#CCOCCOCCOCCNc1nc(N2CCN(C(=O)C(Cc3ccc(O)cc3)n3cc(C(N)CC(C)C)nn3)CC2)nc(N2CCN(C(=O)C(Cc3cc4ccccc4[nH]3)n3cc(C(N)C(C)CC)nn3)CC2)n1 (configuration not stated)
> 30 µM (inactive)	–	NC(=O)CSc1nnc(Cc2ccc3c(c2)OCO3)o1
> 30 µM (inactive)	–	Cc1ccc(-c2csc(NC(=O)C[n+]3cc(-c4ccc(C)cc4)n4c3CCC4)n2)cc1
> 30 µM (inactive)	–	COc1ccc(-c2csc(N(CCCN(C)C)C(=O)c3ccccc3Cl)n2)cc1
9.16 µM	8.2 µM	CN1C(=CC=C2C=C(I)C(=O)C(I)=C2)C(C)(C)c2ccccc21
0.14 µM	0.12 µM	CCC(=C/c1sc2ccc3ccccc3c2[n+]1C)/C=C1\Sc2ccc3ccccc3c2N1C
> 30 µM (inactive)	–	CCCCCCCCCCCCCCCC[n+]1cccc2ccccc21
> 30 µM (inactive)	–	C/C(=N\NC(=O)c1cc(O)cc(O)c1)c1ccc(NC(=O)Cc2ccccc2)cc1
3.89 µM	–	COc1cc2nc(N3CCN(c4cc(C)ccc4C)CC3)nc(N)c2cc1OC
5.48 µM	–	CCc1ccc(Nc2n[n+](-c3ccccc3)c(-c3ccc(OCc4ccccc4)cc3)s2)cc1
7.03 µM	–	COC(=O)C1=C(C)N(Cc2ccccc2)C(=NCc2cccc(C(F)(F)F)c2)N[C@H]1c1cccc(F)c1
> 30 µM (inactive)	–	CN1CCN(CC(=O)N2CCn3c4c(c5cc(C6CCCCC6)ccc53)CCCC42)CC1 (configuration not stated)
> 30 µM (inactive)	–	COc1ccc(N2CC(C(=O)Nc3nnc(SCc4ccccn4)s3)CC2=O)cc1 (configuration not stated)
23.6 µM	21.1 µM	Nc1ccc(Nc2ccccc2N)cc1
2.94 µM	–	CCCCCCCCCCCCCCCC[n+]1ccc(/C=N/O)cc1

EC50	Ki	SMILES
> 30 µM (inactive)	–	CCN(CC)CCOC(=O)c1ccc(N/C=C(/C#N)c2nc(-c3ccc(OC)c(OC)c3)cs2)cc1
5.13 µM	–	Cc1ccc(CN2CCSc3ccc(C(=O)NC4CCN(Cc5ccccc5)CC4)cc32)cc1
> 30 µM (inactive)	–	COCCNC(=O)CN(c1cc(Cl)ccc1OC)S(=O)(=O)c1ccc(C)c([N+](=O)[O-])c1
1.12 µM	1 µM	CCCCn1c(O)c(/C=C/C=C/C=Nc2ccccc2)sc1=S
2.24 µM	–	CCCCCCCCCC[N+](C)(C)CC/C=C1/c2ccccc2Sc2ccc(Cl)cc21
1.48 µM	1.33 µM	COc1ccc(-n2nc3c(N)n[nH]c3cc2=O)cc1
2.85 µM	–	CCc1ccc(Nc2n[n+](-c3ccccc3)c(-c3ccc(OC)c(Br)c3)s2)cc1
> 30 µM (inactive)	–	CCOC(=O)N1CCN(c2c(N3CCN(c4ccccc4F)CC3)c(=O)c2=O)CC1
8.71 µM	–	C#CCOCCOCCOCCNc1nc(N2CCN(C(=O)[C@H](Cc3ccc(O)cc3)n3cc([C@@H](N)CC(C)C)nn3)CC2)nc(N2CCN(C(=O)[C@H](Cc3ccc(O)cc3)n3cc([C@@H](N)CC(C)C)nn3)CC2)n1
4.35 µM	–	CN(C)CCCNc1cc(C(C)(C)C)nc2c(-c3ccc(Cl)cc3)cnn12
> 30 µM (inactive)	–	C#CCOCCOCCOCCNc1nc(N2CCN(C(=O)[C@H](Cc3ccc(O)cc3)n3cc([C@@H](N)C(C)CC)nn3)CC2)nc(N2CCN(C(=O)[C@H](Cc3cc4ccccc4[nH]3)n3cc([C@@H](N)CC(C)C)nn3)CC2)n1 (some centres not stated)
3.37 µM	–	CN(C)CCNc1ncnc2c1sc1nc(-c3ccccc3)c3c(c12)CCCC3
> 30 µM (inactive)	–	CCN(CC)CCOC(=O)c1ccc(N/C=C(/C#N)c2nc(-c3ccc4c(c3)OCO4)cs2)cc1
14.6 µM	13.1 µM	Cc1cc2ccccc2n1CCNC(=O)c1cccs1
3.78 µM	3.39 µM	Nc1ccc(N)c(C(=O)O)c1
> 30 µM (inactive)	–	c1ccc(CNc2nc(NCc3ccccc3)c3ccccc3n2)cc1
4.88 µM	4.36 µM	CCN(CC)CCOC(=O)c1ccc(N/C=C(/C#N)c2nc(-c3cc4ccccc4oc3=O)cs2)cc1
> 30 µM (inactive)	–	CCCSc1ncnc2sc(C)c(C)c12
0.95 µM	0.85 µM	CN(C)c1ccc(/C=C/C=C2/SC(=S)N(c3ccccc3)C2=O)cc1
> 30 µM (inactive)	–	O=C(c1cc(COc2c(F)cccc2F)on1)N1C[C@H]2CC[C@H]1C2
